Two compounds from the NIST ThermoML archive (doi:10.1016/j.tca.2015.03.003) can be followed below.

Structures are written as SMILES. ± gives the expanded uncertainty stated by the source.

The conditions of the series: Crystal; DTA.

For the compound `[Cl-].[K+]` [potassium chloride], the Normal melting temperature stood at 771.1 ± 4 °C.
Consider `[Cl-].[Na+]` [sodium chloride], for which the Normal melting temperature turned out to be 801.1 ± 4 °C.
